Measurements: ChEMBL document CHEMBL1201862, “PubChem BioAssay data set” (2004)
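1) Cells in 96-well plates. 2) Compound, 48 h, 5 concentrations. 3) Linear interpolation between surrounding doses. 4) Unreached endpoint = highest concentration. GI50: concentration for 50% inhibition of growth.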 Activity calls are given as the source filed them. Rule as the data show it: active = GI50 up to about 1.1 µM and inactive = higher.

Tests used:
Assay in all cases: NCI anticancer screen, dose series, 48 h
A498 = tested on: A498
COLO 205 = tested on: COLO 205
DMS-114 = tested on: DMS-114
HOP-62 = tested on: HOP-62
HOP-92 = tested on: HOP-92
K562 = tested on: K562
KM12 = tested on: KM12
M14 = tested on: M14
Malme-3M = tested on: Malme-3M
OVCAR-4 = tested on: OVCAR-4
OVCAR-5 = tested on: OVCAR-5
OVCAR-8 = tested on: OVCAR-8
RXF 393 = tested on: RXF 393
SF-295 = tested on: SF-295
SK-MEL-5 = tested on: SK-MEL-5
SK-OV-3 = tested on: SK-OV-3
SNB-19 = tested on: SNB-19

SMILES	GI50 (A498)	GI50 (COLO 205)	GI50 (DMS-114)	GI50 (HOP-62)	GI50 (HOP-92)	GI50 (K562)	GI50 (KM12)	GI50 (M14)	GI50 (Malme-3M)	GI50 (OVCAR-4)	GI50 (OVCAR-5)	GI50 (OVCAR-8)	GI50 (RXF 393)	GI50 (SF-295)	GI50 (SK-MEL-5)	GI50 (SK-OV-3)	GI50 (SNB-19)
COC(=O)Cc1cc(=O)oc2c1C(=O)CCC2	> 100 µM (inactive)	> 100 µM (inactive)	> 100 µM (inactive)	> 100 µM (inactive)	> 100 µM (inactive)	> 100 µM (inactive)	> 100 µM (inactive)	> 100 µM (inactive)	> 100 µM (inactive)	> 100 µM (inactive)	> 100 µM (inactive)	> 100 µM (inactive)	> 100 µM (inactive)	> 100 µM (inactive)	> 100 µM (inactive)	> 100 µM (inactive)	> 100 µM (inactive)
C[S+](C)CCOC(=O)C(=[N+]=[N-])c1ccc([N+](=O)[O-])cc1	> 100 µM (inactive)	> 100 µM (inactive)	> 100 µM (inactive)	> 100 µM (inactive)	–	> 100 µM (inactive)	> 100 µM (inactive)	> 100 µM (inactive)	> 100 µM (inactive)	> 100 µM (inactive)	> 100 µM (inactive)	> 100 µM (inactive)	> 100 µM (inactive)	> 100 µM (inactive)	> 100 µM (inactive)	> 100 µM (inactive)	> 100 µM (inactive)
COC1(OC)C(N(C)C)=C(Cl)C(=O)/C1=C/C=O	> 100 µM (inactive)	> 100 µM (inactive)	> 100 µM (inactive)	> 100 µM (inactive)	47 µM (inactive)	33.1 µM (inactive)	–	> 100 µM (inactive)	> 100 µM (inactive)	> 100 µM (inactive)	> 100 µM (inactive)	> 100 µM (inactive)	–	> 100 µM (inactive)	> 100 µM (inactive)	> 100 µM (inactive)	> 100 µM (inactive)
COC1OC(C)C(O)CC1OS(=O)(=O)c1ccc(C)cc1 (stereo not given)	> 100 µM (inactive)	> 100 µM (inactive)	> 100 µM (inactive)	–	> 100 µM (inactive)	> 100 µM (inactive)	> 100 µM (inactive)	> 100 µM (inactive)	> 100 µM (inactive)	> 100 µM (inactive)	> 100 µM (inactive)	> 100 µM (inactive)	> 100 µM (inactive)	> 100 µM (inactive)	> 100 µM (inactive)	> 100 µM (inactive)	> 100 µM (inactive)
CC(C)(C)c1cc(C(P(=O)(O)O)P(=O)(O)O)cc(C(C)(C)C)c1O	> 100 µM (inactive)	–	> 100 µM (inactive)	> 100 µM (inactive)	> 100 µM (inactive)	> 100 µM (inactive)	> 100 µM (inactive)	> 100 µM (inactive)	> 10 µM (inactive)	> 100 µM (inactive)	> 100 µM (inactive)	> 100 µM (inactive)	–	> 100 µM (inactive)	> 100 µM (inactive)	> 100 µM (inactive)	> 100 µM (inactive)
COc1cc(O)c2c(c1)C(=O)C1=C(C2=O)C(O)C[C@@](C)(O)C1 (stereo not given in full)	1.28 µM (inactive)	0.264 µM (active)	1.5 µM (inactive)	8.71 µM (inactive)	1.1 µM (active)	0.457 µM (active)	2.47 µM (inactive)	0.871 µM (active)	0.557 µM (active)	1.51 µM (inactive)	9.95 µM (inactive)	1.16 µM (inactive)	1.32 µM (inactive)	2.58 µM (inactive)	–	5.9 µM (inactive)	4.34 µM (inactive)
